From patent US20210047304A1, “Bromodomain Inhibitors” (AbbVie Inc., priority 2016, published 2021)

Molecular target: BRD4 (BDI_K57-E168) (Homo sapiens, UniProt O60885)
Test: TR-FRET bromodomain binding assay, BRD4 BDI

| SMILES | Ki |
| --- | --- |
| Cc1cc(F)cc(C)c1Oc1ccc(C(C)(C)O)cc1-c1cn(C)c(=O)cc1O[C@H]1CC[C@H](C(C)(C)O)CC1 [Example 67, 5-[2-(4-fluoro-2,6-dimethylphenoxy)-5-(2-hydroxypropan-2-yl)phenyl]-4-{[trans-4-(2-hydroxypropan-2-yl)cyclohexyl]oxy}-1-methylpyridin-2(1H)-one] | 2.83 µM |
| Cc1cc(F)cc(C)c1Oc1ccc(C(C)(C)O)cc1-c1cn(C)c(=O)cc1O[C@H]1CC[C@@H](C#N)CC1 [Example 68, cis-4-({5-[2-(4-fluoro-2,6-dimethylphenoxy)-5-(2-hydroxypropan-2-yl)phenyl]-1-methyl-2-oxo-1,2-dihydropyridin-4-yl}oxy)cyclohexane-1-carbonitrile] | 1.95 µM |
| Cc1cc(F)cc(C)c1Oc1ccc(C(C)(C)O)cc1-c1cn(C)c(=O)cc1O[C@H]1CC[C@H](C#N)CC1 [Example 69, trans-4-({5-[2-(4-fluoro-2,6-dimethylphenoxy)-5-(2-hydroxypropan-2-yl)phenyl]-1-methyl-2-oxo-1,2-dihydropyridin-4-yl}oxy)cyclohexane-1-carbonitrile] | 7.25 µM |
| COCC1(C(=O)N[C@H]2CC[C@H](Oc3cc(=O)n(C)cc3-c3cc(C(C)(C)O)ccc3Oc3c(C)cc(F)cc3C)CC2)CC1 [Example 70, N-[trans-4-({5-[2-(4-fluoro-2,6-dimethylphenoxy)-5-(2-hydroxypropan-2-yl)phenyl]-1-methyl-2-oxo-1,2-dihydropyridin-4-yl}oxy)cyclohexyl]-1-(methoxymethyl)cyclopropane-1-carboxamide] | 4.1 µM |
| COCC(C)(C)C(=O)N[C@H]1CC[C@H](Oc2cc(=O)n(C)cc2-c2cc(C(C)(C)O)ccc2Oc2c(C)cc(F)cc2C)CC1 [Example 71, N-[trans-4-({5-[2-(4-fluoro-2,6-dimethylphenoxy)-5-(2-hydroxypropan-2-yl)phenyl]-1-methyl-2-oxo-1,2-dihydropyridin-4-yl}oxy)cyclohexyl]-3-methoxy-2,2-dimethylpropanamide] | 5.08 µM |
| Cc1cc(F)cc(C)c1Oc1ccc(C(C)(C)O)cc1-c1cn(C)c(=O)cc1O[C@H]1CC[C@H](NC(=O)C2(C)COC2)CC1 [Example 73, N-[trans-4-({5-[2-(4-fluoro-2,6-dimethylphenoxy)-5-(2-hydroxypropan-2-yl)phenyl]-1-methyl-2-oxo-1,2-dihydropyridin-4-yl}oxy)cyclohexyl]-3-methyloxetane-3-carboxamide] | 2.26 µM |
| Cc1cc(F)cc(C)c1Oc1ccc(C(C)(C)O)cc1-c1cn(C)c(=O)cc1O[C@H]1CC[C@@H](C(C)(C)O)CC1 [Example 74, 5-[2-(4-fluoro-2,6-dimethylphenoxy)-5-(2-hydroxypropan-2-yl)phenyl]-4-{[cis-4-(2-hydroxypropan-2-yl)cyclohexyl]oxy}-1-methylpyridin-2(1H)-one] | > 13 µM |
| Cc1cc(F)cc(C)c1Oc1ccc(C(C)(C)O)cc1-c1cn(C)c(=O)cc1O[C@H]1CC[C@@H](C(=O)O)CC1 [Example 75, cis-4-({5-[2-(4-fluoro-2,6-dimethylphenoxy)-5-(2-hydroxypropan-2-yl)phenyl]-1-methyl-2-oxo-1,2-dihydropyridin-4-yl}oxy)cyclohexane-1-carboxylic acid] | > 13 µM |
| CCNC(=O)[C@H]1CC[C@@H](Oc2cc(=O)n(C)cc2-c2cc(C(C)(C)O)ccc2Oc2c(C)cc(F)cc2C)CC1 [Example 76, cis-N-ethyl-4-({5-[2-(4-fluoro-2,6-dimethylphenoxy)-5-(2-hydroxypropan-2-yl)phenyl]-1-methyl-2-oxo-1,2-dihydropyridin-4-yl}oxy)cyclohexane-1-carboxamide] | 7.69 µM |
| Cc1cc(F)cc(C)c1Oc1ccc(C(C)(C)O)cc1-c1cn(C)c(=O)cc1O[C@H]1CC[C@@H](C(=O)N2CCCC2)CC1 [Example 77, 5-[2-(4-fluoro-2,6-dimethylphenoxy)-5-(2-hydroxypropan-2-yl)phenyl]-1-methyl-4-{[cis-4-(pyrrolidine-1-carbonyl)cyclohexyl]oxy}pyridin-2(1H)-one] | > 13 µM |
| Cc1cc(F)cc(C)c1Oc1ccc(C(C)(C)O)cc1-c1cn(C)c(=O)cc1O[C@H]1CC[C@H](N2C(=O)CN(C)C2=O)CC1 [Example 78, 3-[trans-4-({5-[2-(4-fluoro-2,6-dimethylphenoxy)-5-(2-hydroxypropan-2-yl)phenyl]-1-methyl-2-oxo-1,2-dihydropyridin-4-yl}oxy)cyclohexyl]-1-methylimidazolidine-2,4-dione] | 4.65 µM |
| Cc1cc(F)cc(C)c1Oc1ccc(C(C)(C)O)cc1-c1cn(C)c(=O)cc1O[C@H]1CC[C@H](NC(=O)C(C)(C)CCCO)CC1 [Example 79, N-[trans-4-({5-[2-(4-fluoro-2,6-dimethylphenoxy)-5-(2-hydroxypropan-2-yl)phenyl]-1-methyl-2-oxo-1,2-dihydropyridin-4-yl}oxy)cyclohexyl]-5-hydroxy-2,2-dimethylpentanamide] | 2.53 µM |
| Cc1cc(F)cc(C)c1Oc1ccc(C(C)(C)O)cc1-c1cn(C)c(=O)cc1O[C@H]1CC[C@H](N2C(=O)CCCC2=O)CC1 [Example 80, 1-[trans-4-({5-[2-(4-fluoro-2,6-dimethylphenoxy)-5-(2-hydroxypropan-2-yl)phenyl]-1-methyl-2-oxo-1,2-dihydropyridin-4-yl}oxy)cyclohexyl]piperidine-2,6-dione] | 9.88 µM |
| Cc1cc(F)cc(C)c1Oc1ccc(C(C)(C)O)cc1-c1cn(C)c(=O)cc1O[C@H]1CC[C@H](N2C(=O)[C@@H](C)N(C)C2=O)CC1 [Example 81, (5R)-3-[trans-4-({5-[2-(4-fluoro-2,6-dimethylphenoxy)-5-(2-hydroxypropan-2-yl)phenyl]-1-methyl-2-oxo-1,2-dihydropyridin-4-yl}oxy)cyclohexyl]-1,5-dimethylimidazolidine-2,4-dione] | 6.74 µM |
| Cc1cc(F)cc(C)c1Oc1ccc(C(C)(C)O)cc1-c1cn(C)c(=O)cc1O[C@H]1CC[C@H](N2C(=O)COC2=O)CC1 [Example 82, 3-[trans-4-({5-[2-(4-fluoro-2,6-dimethylphenoxy)-5-(2-hydroxypropan-2-yl)phenyl]-1-methyl-2-oxo-1,2-dihydropyridin-4-yl}oxy)cyclohexyl]-1,3-oxazolidine-2,4-dione] | 1.51 µM |
| Cc1cc(F)cc(C)c1Oc1ccc(C(C)(C)O)cc1-c1cn(C)c(=O)cc1O[C@H]1CC[C@H](N2C(=O)[C@H](C)N(C)C2=O)CC1 [Example 83, (5S)-3-[trans-4-({5-[2-(4-fluoro-2,6-dimethylphenoxy)-5-(2-hydroxypropan-2-yl)phenyl]-1-methyl-2-oxo-1,2-dihydropyridin-4-yl}oxy)cyclohexyl]-1,5-dimethylimidazolidine-2,4-dione] | 5.89 µM |
| CC(=O)NC1CCC(C)(Oc2cc(=O)n(C)cc2-c2cc(C(C)(C)O)ccc2Oc2c(C)cc(F)cc2C)CC1 (stereo not drawn) [Example 84, N-[trans-4-({5-[2-(4-fluoro-2,6-dimethylphenoxy)-5-(2-hydroxypropan-2-yl)phenyl]-1-methyl-2-oxo-1,2-dihydropyridin-4-yl}oxy)-4-methylcyclohexyl]acetamide] | > 13 µM |
| Cc1cc(F)cc(C)c1Oc1ccc(C(C)(C)O)cc1-c1cn(C)c(=O)cc1O[C@H]1CC[C@H](NC(=O)C2(C#N)CC2)CC1 [Example 85, 1-cyano-N-[trans-4-({5-[2-(4-fluoro-2,6-dimethylphenoxy)-5-(2-hydroxypropan-2-yl)phenyl]-1-methyl-2-oxo-1,2-dihydropyridin-4-yl}oxy)cyclohexyl]cyclopropane-1-carboxamide] | 2.27 µM |
| Cc1cc(F)cc(C)c1Oc1ccc(C(C)(C)O)cc1-c1cn(C)c(=O)cc1O[C@H]1CC[C@H](NC(=O)C2(C)CC(=O)C2)CC1 [Example 87, N-[trans-4-({5-[2-(4-fluoro-2,6-dimethylphenoxy)-5-(2-hydroxypropan-2-yl)phenyl]-1-methyl-2-oxo-1,2-dihydropyridin-4-yl}oxy)cyclohexyl]-1-methyl-3-oxocyclobutane-1-carboxamide] | 2.43 µM |
| Cc1cc(F)cc(C)c1Oc1ccc(C(C)(C)O)cc1-c1cn(C)c(=O)cc1O[C@H]1CC[C@H](NC(=O)C2(C#N)CCC2)CC1 [Example 88, 1-cyano-N-[trans-4-({5-[2-(4-fluoro-2,6-dimethylphenoxy)-5-(2-hydroxypropan-2-yl)phenyl]-1-methyl-2-oxo-1,2-dihydropyridin-4-yl}oxy)cyclohexyl]cyclobutane-1-carboxamide] | 3.98 µM |
| Cc1cc(F)cc(C)c1Oc1ccc(C(C)(C)O)cc1-c1cn(C)c(=O)cc1O[C@H]1CC[C@H](N2C(=O)CCC(C)(C)C2=O)CC1 [Example 89, 1-[trans-4-({5-[2-(4-fluoro-2,6-dimethylphenoxy)-5-(2-hydroxypropan-2-yl)phenyl]-1-methyl-2-oxo-1,2-dihydropyridin-4-yl}oxy)cyclohexyl]-3,3-dimethylpiperidine-2,6-dione] | > 13 µM |
| Cc1cc(F)cc(C)c1Oc1ccc(C(C)(C)O)cc1-c1cn(C)c(=O)cc1O[C@H]1CC[C@H](N2C(=O)CC(C)(C)C2=O)CC1 [Example 90, 1-[trans-4-({5-[2-(4-fluoro-2,6-dimethylphenoxy)-5-(2-hydroxypropan-2-yl)phenyl]-1-methyl-2-oxo-1,2-dihydropyridin-4-yl}oxy)cyclohexyl]-3,3-dimethylpyrrolidine-2,5-dione] | 11.5 µM |
| Cc1cc(F)cc(C)c1Oc1ccc(C(C)(C)O)cc1-c1cn(C)c(=O)cc1O[C@H]1CC[C@H](N2C(=O)[C@@H]3CCCN3C2=O)CC1 [Example 91, (7aS)-2-[trans-4-({5-[2-(4-fluoro-2,6-dimethylphenoxy)-5-(2-hydroxypropan-2-yl)phenyl]-1-methyl-2-oxo-1,2-dihydropyridin-4-yl}oxy)cyclohexyl]tetrahydro-1H-pyrrolo[1,2-c]imidazole-1,3(2H)-dione] | 5.86 µM |
| Cc1cc(F)cc(C)c1Oc1ccc(C(C)(C)O)cc1-c1cn(C)c(=O)cc1O[C@H]1CC[C@H](N2C(=O)O[C@@H](C)C2=O)CC1 [Example 92, (5S)-3-[trans-4-({5-[2-(4-fluoro-2,6-dimethylphenoxy)-5-(2-hydroxypropan-2-yl)phenyl]-1-methyl-2-oxo-1,2-dihydropyridin-4-yl}oxy)cyclohexyl]-5-methyl-1,3-oxazolidine-2,4-dione] | > 13 µM |
